Source: US9963674B2, “Age-modified cells and methods for making age-modified cells” (Memorial Sloan-Kettering Cancer Center, priority 2013, dated 2018)

Columns and labels:
Format in all cases: cell-based, human
[1] = tested on: iPSC-derived fibroblasts; assay: Progerin modified-RNA overexpression in iPSC-derived fibroblasts, age-associated markers (immunocytochemistry, MitoSOX); details: modified-RNA 3 days; young and old donor iPSC-derived fibroblasts; vs nuclear-GFP
Procedure: (§1) The following is a protocol for progerin overexpression using modified-RNA in differentiating or differentiated iPSC-derived cells: • 1. Prepare progerin-modified-RNA (methods of synthesis are described in Example 9) and deliver to iPSC-derived somatic cells using Lipofectamine RNAiMAX (Life Technologies) and incubate • a. For iPSC-derived fibroblasts repeat transfection for 3 consecutive days. • i. Note: Amount/duration combination optimizes treatment for minimal toxicity and earliest significant effects. • b. For iPSC-derived dopamine neurons repeat transfection for 5 consecutive days. • i. Note: Amount/duration combination optimizes treatment for minimal toxicity and earliest significant effects. • c. For other iPSC-derived somatic cells perform pilot experiments to determine amount and duration of progerin modified-RNA. • d. Analyze maturation and/or age-associated phenotypes. • Alternatively, expression of progerin can also be achieved through the use of temperature-sensitive Sendai virus expressing progerin. Additionally, expression of progerin can be achieved by using lentivirus.
(§2) For overexpression experiments, modified-RNA was thawed on ice and adjusted to a working concentration of 100 ng/μl. Per 100,000-cell transfection, 200 ng of modified-RNA was diluted up to 10 μl in Opti-MEM medium (Life Technologies), vortexed, and incubated at room temperature for 10 minutes. In a separate tube, 0.6 μl Lipofectamine RNAiMAX® (Life Technologies) was diluted up to 10 μl in Opti-MEM and incubated for the same timeframe. The Lipofectamine mixture was then transferred to the tube containing the modified-RNA mixture, vortexed and incubated for an additional 10 minutes. The transfection mixture was added dropwise to cells that had been pre-treated with 200 ng/ml of the interferon inhibitor B18R (eBioscience, San Diego, Calif.) for at least 4 hours prior to transfection.
(§3) After 4 hours at 37° C., the entire suspension was replaced with fresh medium supplemented with B18R. Transfection of iPSC-derived fibroblasts was performed starting on day 50 of differentiation and repeated on 2 consecutive days thereafter. iPSC-derived mDA neurons were transfected starting on day 65 or day 120 of differentiation and repeated on 4 consecutive days thereafter. The additional 2 days of transfections were done in order to establish a phenotype in iPSC-derived mDA neurons. Cells were analyzed one day after the final transfection.
(§4) Cells were fixed in 4% paraformaldehyde for 15 minutes. Blocking was performed in phosphate-buffered saline supplemented with 1% BSA, and 0.3% Triton X-100 for 30 minutes to 1 hour. Cells were stained overnight at 4° C. with primary antibodies diluted in blocking buffer. Following several washes, cells were stained with appropriate Alexa Fluor-labeled secondary antibodies (Molecular Probes, Carlsbad, Calif.) at 1:500 in blocking buffer for 30 minutes to 3 hours at room temperature. Cells were counterstained with 4′,6-diamidino-2-phenylindole (DAPI; Thermo Fisher, Rockford, Ill.) to visualize nuclei. Images were acquired with an Olympus IX81 microscope using a Hamamatsu ORCA CCD camera.
Images were acquired on an Operetta (PerkinElmer, Waltham, Mass.) using a 20× objective. Image processing was performed using Harmony high content analysis software (version 3.0).
Passage-matched cells were scored from three independent experiments. […] In these cases, 50 cells per condition were assessed for each independent experiment. […]

[2] = tested on: iPSC-derived mDA neurons; assay: RNA-seq gene expression analysis of iPSC-derived mDA neurons; details: progerin vs nuclear-GFP
Procedure: Cells were lysed directly in Trizol (Life Technologies). RNA was extracted using chloroform and ethanol precipitation and further cleaned using the RNeasy kit (Qiagen). Samples were stored at −80° C. until further processing. Total RNA was reverse transcribed (Superscript, Life Technologies) and 50 ng of RNA was used to template each RT-PCR reaction. For analysis of progerin expression levels, total RNA was hydrolyzed by 0.1× volume 5 M NaOH for 30 minutes at room temperature followed by 0.1× volume 5 M HCl (Scaffidi et al., Science 312:1059-1063 (2006)). Quantitative RT-PCR was performed using the Mastercycler RealPlex2 (Eppendorf, Hauppauge, N.Y.) platform following the manufacturer's instructions. Expression levels were normalized to cyclophillin A or 18S (housekeeping gene controls) as noted. For RNA-seq, total RNA was isolated from two independent experiments and processed by the MSKCC Genomic core facility.
Paired-end 75 base pair RNA-sequencing libraries were sequenced on an Illumina HiSeq2000. Reads were mapped to the human genome (Hg19) using STAR 2.3.0e (Dobin et al., Bioinformatics 29:15-21 (2013) with default mapping parameters and read counts were assessed using HTSeq. Principal component analysis was completed in R (v2.15.2) using the base “stats” package. Differentially expressed genes were identified with limma voom (Smyth, Stat Appl Genet Mol Biol 3:Article3 (2004)). A conservative approach was taken to account for low coverage in the sequencing library; a low read count filter was used such that samples contained non-zero read counts for a gene to be assessed in limma. Differentially expressed genes were identified using a fold change cut off of +/−2 and a Bonferroni adjusted p value of 0.05. A hypergeometric test was used to assess the similarity in response to progerin overexpression in young donor and old donor iPSC-derived mDA neurons. […]

[3] = tested on: iPSC-derived mDA neurons; assay: Progerin modified-RNA overexpression in iPSC-derived mDA neurons, age-associated markers
Procedure: as §1, §2, §3, §4
Passage-matched cells were scored from three independent experiments. Where necessary due to bias against progerin-positive cells, images were processed using ImageJ software (version 1.43u, NIH). In these cases, 50 cells per condition were assessed for each independent experiment. Data are presented as mean±standard error of means (SEM). […]

[4] = modified-RNA 5 days, GFP-positive mDA neurons

GFP-progerin: progerin (truncated lamin A) fused to GFP, SEQ ID No. 2, overexpressed via modified-RNA or hSyn lentivirus
DNA damage (γH2AX) [1]: formation of DNA double strand breaks
LAP2α expression [1]: loss of LAP2α expression
heterochromatin markers (H3K9me3 and HP1γ) [1]: loss of heterochromatin markers
mitochondrial superoxide (MitoSOX) [1]: increased mitochondrial dysfunction
nuclear morphology [1]: induced nuclear morphology abnormalities
BCAS1 expression [2]: downregulation
SIRT4 expression [2]: downregulation
ZNHT3 expression [2]: upregulation
phenotype after acute 3-day overexpression ([3]; modified-RNA 3 days, iPSC-derived mDA neurons): no obvious phenotype
DNA damage (γH2AX foci) [3, 4]: increased accumulation of DNA damage
nuclear folding and blebbing [3, 4]: enhanced nuclear folding and blebbing
LAP2α, H3K9me3 and HP1γ immunocytochemistry ([3]; modified-RNA 5 days, iPSC-mDA neurons, GFP-progerin vs nuclear-GFP): no difference
mitochondrial superoxide ([3]; modified-RNA 5 days, mDA neurons): signs of mitochondrial dysfunction
